Experimental data published in patent EP4810038A1, “METHOD FOR TREATING ALK-POSITIVE OR ROS1-POSITIVE NON-SMALL CELL LUNG CANCER” (Shenzhen TargetRx Co., Ltd., priority 2023, dated 2025).
Where “and” joins values, the source holds several entries; their conditions need not be identical. Equal values may be shown once. Entries after “also recorded” stand apart in the source; their conditions may differ.

Test system: ALK-positive advanced NSCLC
Assay: Phase I clinical trial, indication expansion phase: efficacy in ALK-positive patients (group A cohort 1: prior crizotinib only; cohort 2: prior second-generation ALK inhibitor; group C: ALK inhibitor naive)
Type: in vivo, human
Procedure: The anti-tumor efficacy is evaluated according to RECIST version 1.1. For patients initially evaluated as having a complete response (CR) or partial response (PR), efficacy should be confirmed at least 4 weeks later. In the patients with asymptomatic central nervous system (CNS) metastases, in addition to evaluating 5 extracranial target lesions, up to 5 intracranial target lesions will also be evaluated. The specific indicators are as follows:
"ORR" includes CR and PR, and is defined as the proportion of patients who achieve complete response or partial response.
"IC-ORR" includes CR or PR for confirmed intracranial lesions, and is defined as the proportion of the patients with complete response or partial response of intracranial lesions among the patients with intracranial lesions.
"DCR" is defined as the proportion of the patients who achieve response (PR+CR) and stable disease (SD) after a treatment.
"IC-DCR" is defined as the proportion of the patients who achieve intracranial response (PR+CR), intracranial stable disease (SD), and […] after a treatment among the patients with intracranial lesions.
"DOR" is defined as the time from the first assessment of CR or PR to progressive disease or death, and is only applicable to the patients who achieve response.
"IC-DOR" is defined as the time from the first assessment of intracranial CR or intracranial PR to progressive disease or death, and is only applicable to the patients whose intracranial lesions achieve response.
"TTR" is defined as the time from patient enrollment (first dose of investigational drug) to tumor response (CR/PR), based on the patients with objective response.
"IC-TTR" is defined as the time from patient enrollment (first dose of investigational drug) to intracranial tumor response (IC-CR/PR), based on the patients with intracranial objective response.
"PFS" is defined as the time from the first administration of the investigational drug to progressive disease (PD) or death from any cause, whichever comes first.
In the indication expansion phase, an appropriate administration regimen was determined based on the safety, tolerability, PK and efficacy data from the dose escalation phase and dose expansion phase, and the expansion was performed within the target population.
The result of a pregnancy test conducted ≤7 days prior to the first administration of the investigational drug must be negative for the women of childbearing age.

[1] = A cohort 2, prior 3 or more second-generation ALK inhibitors, chemotherapy (N=11)
[2] = A cohort 2, prior 3 or more second-generation ALK inhibitors, no chemotherapy (N=7)
[3] = A cohort 2, prior one second-generation ALK inhibitor, chemotherapy (N=14)
[4] = A cohort 2, prior one second-generation ALK inhibitor, no chemotherapy (N=26)
[5] = A cohort 2, prior two second-generation ALK inhibitors, chemotherapy (N=15)
[6] = A cohort 2, prior two second-generation ALK inhibitors, no chemotherapy (N=24)
[7] = intracranial measurable lesions, Group A, cohort 1 (n=4)
[8] = intracranial measurable lesions, Group A, cohort 2 (n=27)
[9] = intracranial measurable lesions, Group C (n=8)
[10] = intracranial measurable lesions, In total (ALK-positive) (n=52)
[11] = systemic, Group A, cohort 1 (n=14)
[12] = systemic, Group A, cohort 2 (n=97)
[13] = systemic, In total (ALK-positive) (n=144)

## [2H]C([2H])([2H])n1nc2c(c1C#N)-c1cnc(N)c(c1)O[C@H](C)c1cc(F)ccc1C(=O)N(C)C2 [compound A, (10R)-7-amino-12-fluoro-2-(methyl-d3)-10,16-dimethyl-15-oxo-10,15,16,17-tetrahydro-2H-8,4-(metheno)pyrazolo[4,3-h][2,5,11]benzoxadiazacyclotetradecine-3-carbonitrile]
14 patients previously received crizotinib with or without chemotherapy
  ORR: 71.4%
33 ALK TKI-treatment naive patients
  ORR: 84.8%
97 patients previously received a second-generation TKI
  overall ORR: 39.2%
[1]
  BOR CR: 0 n (%)
  BOR NE: 0 n (%)
  BOR PD: 1 (9.1) n (%)
  BOR PR: 3 (27.3) n (%)
  BOR SD: 7 (63.6) n (%)
  Confirmed ORR (95% CI): 3 (27.3) (6.0, 61.0) n (%)
  DCR (95% CI): 10 (90.9) (58.7, 99.8) n (%)
  Median TTR (range): 1.35 (1.28, 7.00) months
[2]
  BOR CR: 0 n (%)
  BOR NE: 1 (14.3) n (%)
  BOR PD: 0 n (%)
  BOR PR: 3 (42.9) n (%)
  BOR SD: 3 (42.9) n (%)
  Confirmed ORR (95% CI): 3 (42.9) (9.9, 81.6) n (%)
  DCR (95% CI): 6 (85.7) (42.1, 99.6) n (%)
  Median TTR (range): 1.35 (1.35, 1.45) months
[3]
  BOR CR: 0 n (%)
  BOR NE: 1 (7.1) n (%)
  BOR PD: 4 (28.6) n (%)
  BOR PR: 6 (42.9) n (%)
  BOR SD: 3 (21.4) n (%)
  Confirmed ORR (95% CI): 6 (42.9) (17.7, 71.1) n (%)
  DCR (95% CI): 9 (64.3) (35.1, 87.2) n (%)
  Median TTR (range): 2.07 (1.35, 6.90) months
[4]
  BOR CR: 0 n (%)
  BOR NE: 0 n (%)
  BOR PD: 6 (23.1) n (%)
  BOR PR: 9 (34.6) n (%)
  BOR SD: 11 (42.3) n (%)
  Confirmed ORR (95% CI): 9 (34.6) (17.2, 55.7) n (%)
  DCR (95% CI): 20 (76.9) (56.4, 91.0) n (%)
  Median TTR (range): 1.38 (1.28, 6.80) months
[5]
  BOR CR: 0 n (%)
  BOR NE: 0 n (%)
  BOR PD: 2 (13.3) n (%)
  BOR PR: 6 (40.0) n (%)
  BOR SD: 7 (46.7) n (%)
  Confirmed ORR (95% CI): 6 (40.0) (16.3, 67.7) n (%)
  DCR (95% CI): 13 (86.7) (59.5, 98.3) n (%)
  Median DOR (95% CI): 12.45 (5.39, -) months
  Median TTR (range): 1.40 (1.31, 2.79) months
[6]
  BOR CR: 0 n (%)
  BOR NE: 0 n (%)
  BOR PD: 3 (12.5) n (%)
  BOR PR: 11 (45.8) n (%)
  BOR SD: 10 (41.7) n (%)
  Confirmed ORR (95% CI): 11 (45.8) (25.6, 67.2) n (%)
  DCR (95% CI): 21 (87.5) (67.6, 97.3) n (%)
  Median DOR (95% CI): 12.48 (2.76, -) months
  Median TTR (range): 1.38 (1.35, 9.72) months
ALK TKI-naive, 8 patients with measurable CNS lesions at baseline
  intracranial ORR: 75%
Cohort 2 of group A, FAS, as of April 17, 2024
  median PFS: 6.87 months
[7]
  BOR CR: 1 n (%) and 1 (25.0) n (%)
  BOR NE: 0 n (%)
  BOR PD: 0 n (%)
  BOR PR: 1 n (%) and 1 (25.0) n (%)
  BOR SD: 2 (50.0) n (%)
  Confirmed ORR (95% CI): 2 (50.0) (6.8, 93.2) n (%)
  DCR (95% CI): 4 (100) (39.8, 100.0) n (%)
  Median DOR (95% CI): not reached; also recorded: NR (NR, NR)
  Median TTR (range): 1.36 months and 1.36 (1.35, 1.38) months
[8]
  BOR CR: 5 n (%) and 5 (18.5) n (%)
  BOR NE: 1 (3.7) n (%)
  BOR PD: 0 n (%)
  BOR PR: 14 n (%) and 14 (51.9) n (%)
  BOR SD: 7 (25.9) n (%)
  Confirmed ORR (95% CI): 19 (70.4) (49.8, 86.2) n (%)
  DCR (95% CI): 26 (96.3) (81.0, 99.9) n (%)
  Median DOR (95% CI): 17.97 months and 17.97 (6.64, NR) months
  Median TTR (range): 1.41 months and 1.41 (1.31, 9.72) months
[9]
  BOR CR: 0 n (%)
  BOR NE: 0 n (%)
  BOR PD: 0 n (%)
  BOR PR: 6 n (%) and 6 (75.0) n (%)
  BOR SD: 2 (25.0) n (%)
  Confirmed ORR (95% CI): 6 (75.0) (34.9, 96.8) n (%)
  DCR (95% CI): 8 (100) (63.1, 100) n (%)
  Median DOR (95% CI): not reached; also recorded: NR (4.17, NR)
  Median TTR (range): 1.41 months and 1.41 (1.35, 1.45) months
[10]
  BOR CR: 6 (11.5) n (%)
  BOR NE: 2 (3.8) n (%)
  BOR PD: 1 (1.9) n (%)
  BOR PR: 24 (46.2) n (%)
  BOR SD: 19 (36.5) n (%)
  Confirmed ORR (95% CI): 30 (57.7) (43.2, 71.3) n (%)
  DCR (95% CI): 49 (94.2) (84.1, 98.8) n (%)
  Median DOR (95% CI): 17.97 (17.97, -) months
  Median TTR (range): 1.40 (1.31, 9.72) months
Prior crizotinib, four patients with measurable CNS lesions at baseline
  intracranial ORR: 50.0%
Prior second-generation TKI, 27 patients with measurable CNS lesions at baseline
  IC-ORR: 70.4%
[11]
  BOR CR: 0 n (%)
  BOR NE: 0 n (%)
  BOR PD: 0 n (%)
  BOR PR: 10 n (%) and 10 (71.4) n (%)
  BOR SD: 4 n (%) and 4 (28.6) n (%)
  Confirmed ORR (95% CI): 10 (71.4) (41.9, 91.6) n (%)
  DCR (95% CI): 14 (100) (76.8, 100.0) n (%)
  Median DOR (95% CI): not reached; also recorded: NR (5.585, NR)
  Median TTR (range): 2.71 months and 2.71 (1.25, 9.66) months
[12]
  BOR CR: 0 n (%)
  BOR NE: 2 (2.1) n (%)
  BOR PD: 16 (16.5) n (%)
  BOR PR: 38 (39.2) n (%)
  BOR SD: 41 (42.3) n (%)
  Confirmed ORR (95% CI): 38 (39.2) (29.4, 49.6) n (%)
  DCR (95% CI): 79 (81.4) (72.3, 88.6) n (%)
  Median DOR (95% CI): 12.48 months and 12.48 (12.45, NR) months
  Median TTR (range): 1.38 months and 1.38 (1.28, 9.72) months
systemic, Group C (n=33)
  BOR CR: 0 n (%)
  BOR NE: 0 n (%)
  BOR PD: 1 (3.0) n (%)
  BOR PR: 28 n (%) and 28 (84.8) n (%)
  BOR SD: 4 n (%) and 4 (12.1) n (%)
  Confirmed ORR (95% CI): 28 (84.8) (68.1, 94.9) n (%)
  DCR (95% CI): 32 (97.0) (84.2, 99.9) n (%)
  Median DOR (95% CI): not reached; also recorded: NR (9.69, NR)
  Median TTR (range): 1.35 months and 1.35 (1.12, 4.21) months
[13]
  BOR CR: 0 n (%)
  BOR NE: 5 (2.9) n (%)
  BOR PD: 21 (12.3) n (%)
  BOR PR: 84 (49.1) n (%)
  BOR SD: 61 (35.7) n (%)
  Confirmed ORR (95% CI): 84 (49.1) (41.4, 56.9) n (%)
  DCR (95% CI): 145 (84.8) (78.5, 89.8) n (%)
  Median DOR (95% CI): 12.48 (12.45, -) months
  Median TTR (range): 1.38 (1.12, 13.96) months
